Test results as given in patent EP2119770B1, “Production of alpha-oxyfunctionalized carbonyl compounds” (priority 2008, dated 2009).

Tests used:
Gox0644 [1] = target: T1, Gox0644 (Gluconobacter oxydans, UniProt Q5FT75); assay: Gox0644 acetaldehyde tolerance test; type: biochemical
From the text: 3.1. […] By coupling two coenzyme-dependent enzyme reactions, NADPH can be continuously regenerated. […] For this purpose, a combined enzymatic reaction was used between the NADPH-dependent oxidoreductases that form α-hydroxy carbonyl compounds and the aldehyde dehydrogenase GOX1122 that produces the reduced cofactor in the course of acetaldehyde oxidation. […] The products derived from the α-diketone and α-ketoaldehyde substrate reaction were generated according to the cofactor regeneration protocol. […] In both the reactions with phenylglyoxal and 2,3 pentanedione, Gox0644 activity remained similar to the control reaction consisting of a reaction without acetaldehyde (Tab. 12/13). […] In the reaction with 2,3 pentanedione there was a slight decrease of about 20% from the control, however, the activity levels were still very high at 66.8 U/mg. […] Table 12: Gox0644 acetaldehyde tolerance tests with phenylglyoxal

Gox0644 [2] = target: T1, Gox0644; assay: Enzyme kinetics (Lineweaver-Burk plots), Gox0644; type: biochemical; settings: NADPH-dependent reduction
Experimental: Determination of pH and temperature optima and enzyme kinetics: The optimum pH for enzyme activities was determined by a modified method of Salusjärvi, T. et al., Appl. Microbiol. Biotechnol. 65:306-314 (2004) using the following buffer system (50 mM final concentration each): sodium acetate pH 4.5 - 6.5, potassium phosphate pH 6.5 - 8.0, Tris-HCl pH 8.0 - 10. Temperature optima for the biocatalysts were determined under standard reaction conditions at temperatures ranging from 20 - 80 °C. The Michaelis constant (Km) for the proteins was determined from purified enzyme by Lineweaver-Burk plots. Assays were performed at optimum pH for each enzyme and at 30 °C using the top substrate and a targeted substrate. The Km for each substrate was calculated using concentrations of 0.0025 to 10 mM, and the Km NAD(P)H and NAD(P) was calculated using concentrations of 0.01 to 0.5 mM
The Michaelis constants were determined from purified enzyme by Lineweaver-Burk plots. The Km and Vmax values for the substrates were calculated using concentrations of 0.025 to 10 mM, The optimal pH values and temperatures for enzyme activities are also shown in Tab. 11. Tab. 11: Summary of kinetic parameters

Row | SMILES | activity levels (Gox0644 [1]; Gox0644 with 2,3 pentanedione, high concentration of acetaldehyde) [U/mg] | Gox0644 activity (Gox0644 [1]; substrate 2,3-pentanedione, Control (without acetaldehyde)) [U/mg] | Gox0644 activity (Gox0644 [1]; substrate 2,3-pentanedione, acetaldehyde 10mM) [U/mg] | Gox0644 activity (Gox0644 [1]; substrate 2,3-pentanedione, acetaldehyde 30mM) [U/mg] | Gox0644 activity (Gox0644 [1]; substrate 2,3-pentanedione, acetaldehyde 50mM) [U/mg] | Vmax (Gox0644 [2]) [U/mg protein] | Gox0644 activity (Gox0644 [1]; substrate phenylglyoxal, Control (without acetaldehyde)) [U/mg] | Gox0644 activity (Gox0644 [1]; substrate phenylglyoxal, acetaldehyde 10mM) [U/mg] | Gox0644 activity (Gox0644 [1]; substrate phenylglyoxal, acetaldehyde 30mM) [U/mg] | Gox0644 activity (Gox0644 [1]; substrate phenylglyoxal, acetaldehyde 50mM) [U/mg] | Gox0644 activity (Gox0644 [1]; substrate phenylglyoxal, acetaldehyde 100mM) [U/mg]
1 | CCC(=O)C(C)=O [2,3-pentanedione] | 66.8 | 87.6 | 90.5 | 79.3 | 66.8 | 79 |  |  |  |  | 
2 | O=CC(=O)c1ccccc1 [phenylglyoxal] |  |  |  |  |  | 93 | 38.5 | 29.6 | 37.1 | 39.3 | 31.2
